# Results published in a melting point compilation (Tetko et al.; mined from patent text by program, amines drawn as free bases though some values may be those of a salt).
row,melting point,Compound
1,194 °C,CC(C)CCNC(=O)c1ccccc1-c1ccccc1CNC(=O)Nc1ccccc1
2,117 to 118 °C,COc1ccc(C=Cc2c(Cl)cncc2Cl)c2c1OCC2C (stereo not given)
3,105 to 107 °C,CC(C)(C)OC(=O)N1CCN(c2nsc3ccccc23)CC1
4,143 to 145 °C,CNC(=O)C(=NOC)c1ccccc1COc1ccc2c(c1)OCC2=NOC
5,204 to 205 °C,Oc1ccc(Cl)c(-n2ccnc2)c1
6,75 to 95 °C,Cc1cc(F)ccc1C(=C(C=CC=O)c1nnnn1C)c1ccc(F)cc1C
7,242 to 244 °C,O=C(O)CC1CCN(c2ccc3c(NC(=O)CC4CCCCC4)c(Cl)ccc3n2)CC1
8,200 to 205 °C,Cc1ccc2c(c1)C=Cc1cc(C)ccc1C2c1cn(Cc2nc(C(=O)O)cs2)c(=O)[nH]c1=S
9,96 to 97 °C,CC(C)(CCCOc1cccc(C(F)(F)F)c1)C(=O)O
10,203 to 205 °C,O=C1O[C@@H](CNC(=O)C(F)(F)F)CN1c1ccc2c(c1)CCCc1cnoc1-2
11,87 °C,BrCc1cc(-c2ccccc2)no1
12,75 to 77 °C,CCOC(=O)C1C(=O)C=C(OCC)CC1c1ccc(C)cc1 (stereo not given)
13,203 °C,COC(=O)C1=C(C)NC(N)=C(C(=O)OC(C)C)C1c1ccccc1[N+](=O)[O-] (stereo not given)
14,179 to 180 °C,CC1(O)C(O)C(CO)OC1n1ccc2c(N=[N+]=[N-])ncnc21 (stereo not given)
15,243 to 246 °C,COCCNC(=O)C1CCC(Nc2ncc3ncnc(Nc4ccc(F)c(Cl)c4)c3n2)CC1 (stereo not given)
16,265 to 268 °C,CCn1cc(-c2nnn[nH]2)c(=O)c2cc(F)c(N3CCN(c4ncccn4)CC3)c(OC(F)F)c21
17,88 to 90 °C,CN(C)C(=O)C(=O)c1ccc(Cl)cc1C(=O)c1ccccc1
18,176 to 177 °C,O=C(O)COc1ccc(C(=C2SCCCS2)c2ccccc2)cc1
19,84 to 87 °C,CCOC(=O)C(NC(=O)Nc1ccccc1Cl)(c1nc(OC)cc(OC)n1)C(C)C (stereo not given)
20,110 to 111 °C,CN(c1ccncc1)c1ccccc1C(=O)N1CCCCC1
21,116 to 119 °C,CC(C)(C)OC(=O)N[C@H](Cc1ccc(Cl)c(Cl)c1)C(=O)N1CCC[C@H]1C(=O)NC1CCc2n[nH]cc2C1 (stereo not given in full)
22,137 to 138 °C,COc1ccc(-c2cc(=O)n(Cc3ccccc3)nc2-c2ccc(OC)c(F)c2)cc1
23,99 to 100 °C,COC(=O)c1cc(N)ccc1OC(C)=O
24,181 to 182 °C,Cc1ccc(-c2ccccc2-c2n[nH]c(=O)n2C)cc1
25,74 to 77 °C,COC(=O)COc1cccc(NC(=O)NCC(=O)N(CC(=O)OC(C)(C)C)c2ccccc2C(=O)c2ccccc2)c1

row,melting point,Compound
1,182 to 184 °C,CON=C(Cl)c1ccccc1S(=O)(=O)NC(=O)Nc1nc(C)nc(OC)n1
2,113 to 114 °C,COc1ccc(-n2c(Cn3ccnc3)nc3ccccc32)cc1
3,196 to 197 °C,Nc1c(-c2cccc(Oc3ccccc3)c2)c(=O)[nH]c2cc(Cl)ccc12
4,94 to 95 °C,CCCC(=O)c1ccc(OCCCCCC(=O)O)c(Cl)c1Cl
5,420 °C,NS(=O)(=O)c1cccc2c1ccc1nc(O)c(O)nc12
6,246 to 247 °C,CCc1nnc2nc(-c3ccccc3)ccn12
7,127 to 130 °C,Cc1ccc(CC2=NOS(=O)N2)cc1C (stereo not given)
8,186 to 187 °C,CCOc1ncnc(OC)c1NC(N)=S
9,84 to 86.5 °C,COC(=O)C[C@H]1C[C@@H](C=Cc2ccccc2)OC(C)(C)O1 (relative stereo)
10,181 °C,CCN(CC)C(=O)CCCC1CCN(Cc2cnc3cc(NC(=O)c4ccc(-c5ccc(F)cc5)cc4)c(C)cc3c2)CC1
11,226 °C,CCN1CCc2ccc(Nc3ncc(C(F)(F)F)c(Nc4ccccc4C(=O)NC)n3)cc2CC1
12,159 to 160 °C,Nc1nc(SC2CCC2)c2ncn(C3C=CC(CO)C3)c2n1 (stereo not given)
13,71 to 73 °C,CCOC(=O)CN1Cc2ccccc2CC(N)C1=O (stereo not given)
14,271 to 274 °C,FC(F)c1nc2ccccc2n1-c1nc(Nc2cnccn2)nc(N2CCOCC2)n1
15,138 to 139 °C,O=C(CO[C@H]1NC(=O)[C@@H]1NC(=O)c1ccccc1)CC(=O)OCc1ccc([N+](=O)[O-])cc1
16,158 °C,CN=C1SC2Cc3ccc(S(C)(=O)=O)cc3C2(O)N1C (stereo not given)
17,107 to 109 °C,CN(C)C(=O)CCc1c[nH]c(-c2cccs2)c1
18,219 to 220 °C,CCc1nc2c(N)nc3cc(OCC(=O)N4CCOCC4)ccc3c2n1CC(C)C
19,142 to 145 °C,O=[N+]([O-])c1ccc(-c2ccc(Cl)cc2)cc1
20,123 °C,COC(=O)c1ccccc1NC(=O)c1ccc(Br)c(C)c1
21,132 to 133 °C,CC(C)(C)OC(=O)N1C(=O)[C@H](O)[C@@H]1C=Cc1ccccc1
22,111 to 112 °C,CCCOc1ccccc1-c1nc2c(CCC)nn(C)c2c(=S)[nH]1
23,101 to 103 °C,Cc1nc2c(F)cccc2c(Cl)c1CCCl
24,206 to 207 °C,CCCN1c2ncccc2C(=O)N(C)c2ccc(-c3cn[nH]c3)nc21
25,91 to 92 °C,Cn1nnc2c(N3CCN(Cc4ccccc4)CC3)ncnc21

row,melting point,Compound
1,128 to 129 °C,CNC(=O)C(=NOCF)c1ccccc1Oc1ncnc(Oc2ccccc2Cl)c1F
2,110 to 112 °C,OCc1ccc(-c2nn(Cc3ccccc3)c3ccccc23)cc1
3,35 °C,CCCCCCCCCCCCCCOCc1ccc(C=C2C(=O)C3(C)CCC2C3(C)C)cc1 (stereo not given)
4,185 to 188 °C,COC(=O)c1ccc2[nH]c(/C=C/c3ccc(OC)c(OC)c3)nc2c1
5,212 to 214 °C,COC(=O)c1cc(C(=O)OC)n(C(c2ccccc2)(c2ccccc2)c2ccccc2)n1
6,184 °C,CCOC(=O)c1ccccc1N(CC(=O)N(C)c1ccccc1)C(=O)CNC(=O)Nc1cccc(CO)c1
7,93.5 to 94.5 °C,O=[N+]([O-])c1ccc(OCCCN2CCC(C(O)(c3ccc(F)cc3)c3ccc(F)cc3)CC2)cc1
8,112 °C,Cc1nn(-c2cc(OC(F)F)n(C)n2)c(-c2ccc(Cl)cc2)c1CC(=O)O
9,119 to 122 °C,Cc1ccc(C)n1N(C)c1ccc(N2CCOCC2)nn1
10,141 to 145 °C,CCN1C(=O)Cc2cc(C(C)=O)ccc21
11,248 to 250 °C,COc1ccc2cc(C(=O)Oc3ccc(Cl)cn3)c(=O)oc2c1
12,151 to 152 °C,CCCCc1nc(C(C)(C)O)c(C#N)n1C(c1ccccc1)(c1ccccc1)c1ccccc1
13,117 to 119 °C,O=C(c1ccnc(F)c1)N1CCC[C@H](c2noc(-c3ccc(F)cc3)n2)C1
14,59.5 to 61 °C,COC(CC[C@](C)(O)[C@@H](/C=C\C=C\c1ccccc1)Sc1ccccc1)OC (racemic)
15,106 to 112 °C,CCNC(=S)NC1CCCc2sccc21 (stereo not given)
16,228 to 233 °C,CCOc1cc(CN2CCN(c3ccc(C(=O)NC)cc3)CC2)cc2c1OC(C)C(=O)N2 (stereo not given)
17,73 to 75 °C,CCOP(=O)(CC=CC(=O)O)OCC
18,138 to 139 °C,Cc1c(Oc2c(F)cc(C(F)(F)F)cc2Cl)nn(C(=O)OC(C)(C)C)c1C
19,149 to 151 °C,CC/C(=N\OCCCOc1ccc(C(=O)O)c(NC(=O)c2ccc(C(F)(F)F)cc2)c1)c1ccc(C(C)(C)C)cc1
20,122 to 123 °C,COC(=O)c1[nH]c2c(C)ccc(Cl)c2c1C
21,95 to 97 °C,COC(=O)c1ccc(OC(F)(F)F)c(O)c1
22,173 to 174 °C,CCC(CC)COc1cnc(N)nc1N
23,211 to 213 °C,Cc1nc(N)c2nc(CO)n(NC3CCC3)c2c1C
24,129 to 130 °C,O=c1oc2ccccc2c2c1CN(CCN1CC3CCCC(C3)C1)CC2
25,210 to 212 °C,NC(=NO)c1ccc(Cn2ccc(OCc3ccccc3)c(Br)c2=O)cc1

row,melting point,Compound
1,125 to 127 °C,O=[N+]([O-])c1ccc(NN=CCCc2ccc(F)cc2)cc1
2,191 to 193 °C,CCCc1nc2c(N)nc3ccccc3c2n1CCCCN(O)C(C)=O
3,102 to 105 °C,N#Cc1ccc(OCc2cnsc2)cc1F
4,206 to 208 °C,O=C(NCC1CCCCC1)c1c(Cl)ccc2nc(N3CC(O)C3)ccc12
5,230 to 231 °C,COc1cc(C=CC(=O)Nc2c(OC)nc3c(C)cc(C)cc3c2-c2ccccc2Cl)cc(OC)c1OC(C)=O
6,58 to 67 °C,COC(=O)C1=C(C)NC(C)=C(C(=O)OCC2COC3(CCCC3)O2)C1c1cccc([N+](=O)[O-])c1 (stereo not given)
7,188 to 189 °C,O=C1Nc2ccccc2CCC1Oc1ccc([N+](=O)[O-])c(OCc2ccccc2)c1 (stereo not given)
8,120 to 122 °C,O=C1NC(=O)C(Cc2ccc(C(=O)CCCc3ccccc3)cc2)S1 (stereo not given)
9,118 to 120 °C,CCSc1cc(C)nc(SCC)c1NC(=O)CN1CCN(CCSc2nc3ccc(COC)c(COC)c3o2)CC1
10,164 °C,CC1CC2C(=CCC3(C)C(C(=O)CCl)=CCC23)C2(C)C=CC(=O)C=C12 (stereo not given)
11,198 °C,O=C(Nc1cccc(Br)c1)Oc1ccc2c(c1)CCCN2
12,208 °C,N#Cc1c2ccccc2nc2ccc(Cl)cc12
13,187 °C,CCOC(=O)c1cn(C)c2cnc3cc(F)c(N4CC5(C)CC4CC(C)(C)C5)cc3c2c1=O (stereo not given)
14,177 to 179 °C,CN(C)CCCc1c[nH]c(-c2ccc(F)cc2)c1-c1ccncc1
15,147 to 150 °C,COc1ccc2cc(C3=CCC4(CCNCC4)CC3)ccc2c1
16,250 to 251 °C,Cc1ccc2c(=O)[nH]c(=O)n(C(C)C)c2c1
17,192 to 194 °C,O=C(CCl)Nc1ccc(-c2nc3ccccc3s2)cc1I
18,120 to 121 °C,CCCCN=c1cc2n(c(=O)n1C)CCc1cc(OC)c(OC)cc1-2
19,152 to 154 °C,CS(=O)(=O)Nc1cc(N)ccc1OC1CCCCC1
20,181 °C,C#CCOC(=O)C1=C(C)NC(N)=C(C(=O)OCC)C1c1cccc([N+](=O)[O-])c1 (stereo not given)
21,130 °C,O=C(Nc1ccc(F)cc1)Oc1ccc2c(c1)N(Cc1ccccc1)CCC2
22,263 to 265 °C,Cc1ccc2nc(CCl)[nH]c(=O)c2c1
23,237 to 239 °C,CCNC(=O)NNC(=O)c1ccc(Cl)cc1

row,Compound,melting point
1,C[C@H]1CC[C@@H](OC(=O)c2nc(Cl)n3c2[C@@H]2CCCN2C(=O)c2ccccc2-3)CC1,176 to 177 °C
2,CC(C)N(C(C)C)P(N)(N)=S,93 to 98 °C
